# Patent US20100190849A1, “Novel Clerodanes and Methods for Repelling Arthropods” (priority 2006, published 2010)
# Marks after values point to notes of the source that are not given here.
# Key:
# [1] = test system: S. invicta; assay: Two-choice digging bioassay, head-to-head against octanoic acid; assay type: in vivo, Solenopsis invicta; conditions: 25.00 ppm; both S. invicta colonies; FIGS. 3 and 4
# Experimental: (§1) The repellency of the two terpenoids, callicarpenal and intermedeol, against workers of red imported fire ants, Solenopsis invicta Buren, black imported fire ants, Solenopsis rickeri Forel, and a hybrid of these two species was evaluated using multiple-choice digging bioassays (Tables 9 & 10). […] Callicarpenal and intermedeol were compared with octanoic acid, a known fire ant repellant, at the 25.00 ppm level using two-choice digging bioassays (FIGS. 3 and 4).
# (§2) Head-to-head comparison on repellency of callicarpenal and intermedeol against octanoic acid: The bioassay apparatus was similar as described above, except a smaller Petri dish (8.7×2.3 cm) was used and only two choices were presented: one was sand treated with callicarpenal or intermedeol and the other with octanoic acid. Two choices were opposite each other across the center of the Petri dish and each was 3.0 cm away from the center. All compounds were tested at a 25.00 ppm level. Sand preparation was similar as described above. Ants from the same colonies as above were used in this experiment. There were five replications for each pair of comparisons. A paired t-test (critical P-value=0.05) was used to compare the mean amount of sand removed between two tubes.
# [2] = test system: S. richteri; assay: as above; assay type: in vivo, Solenopsis richteri; conditions: 25.00 ppm; both S. richteri colonies; FIGS. 3 and 4
# Experimental: as §1, §2
# [3] = test system: Anopheles stephensi; assay: K & D module mosquito anti-biting (repellent) bioassay; assay type: in vivo; conditions: 25 nmol compound/cm^2 cloth; for Proportion Not Biting: Exp. 7, 56 replicates; for repellent activity (in words): Experiment 7
# Excerpt: Insects: Ae. aegypti(L.) (red eye Liverpool strain) and An. stephensi Liston used in the study were from colonies maintained at the Walter Reed Army Institute of Research, Silver Spring, Md. The insects were reared by feeding larvae ground tropical fish flakes (Tetramin Tropical Fish Flakes, Tetra Sales, Blacksburg, Va., www.tetra-fish.com)(Gerberg, E. j., et al., Manual for mosquito rearing and experimental techniques. Amer. Mosq. Control Assoc. Bull. No. 5 (revised), 1994, AMCA. inc., Lake Charles, La.). Adults were maintained in a photoperiod of 12:12 (L:D) h at 27° C. and 80% RH with cotton pads moistened with 10% aqueous sucrose solution. Mated females were 5-15 d old when they were used in bioassays. Ae. aegypti females had access only to water 24 h and neither food nor water for another 24 h before testing. An. stephensi females were provided with water alone 24 h before testing.
# Mosquito Bioassay Methods: Experiment were conducted by using, a six-celled in vitro Klun & Debboun (K & D) module bioassay system developed by klun et al. (Klum J. A., et al., Journal of the American Mosquito Control Association. 21: 64-70 (2005)) for quantitative, evaluation of mosquito-repellent (anti-biting) properties of candidate repellent compounds for human use.
# Plant extracts, fractions, or isolated pure plant derived compounds in 95% ethanol solution were each randomly applied to six-4×5 cm areas of organdy cloth and positioned over the membrane-covered blood. A replicate consisted of six treatments: four test chemicals or extract fractions, 95% ethanol treated cloth as control and unfractionated plant extract or a standard repellent compound, (1S, 2′S)-2-methylpiperidinyl-3-cyclohexen-1-carboxamide (SS220) at 25 nmol/cm^2 cloth. The 25 nmol SS220/cm^2 cloth dose was used as a standard, because it was known from human volunteer and in vitro assays to consistently suppress mosquito biting by 80% or more compared to controls in replicated assays (Klun, J. A., et al., Journal of the American Mosquito Control Association, 21: 64-70 (2005)). […] Routinely, a six-celled K & D module containing five mosquitoes/cell was positioned over cloth treatments covering the six blood-membrane wells, and trap doors of the K&D modules were opened to expose the treatments to the sets of mosquitoes. After a 3 minute exposure, the number of mosquitoes biting through cloth treatments in each cell was recorded and mosquitoes were prodded back into the cells. In Experiment 8, we retained all mosquitoes in their respective K&D module cells, each fitted with a water-moist piece of cotton, and observed the mosquitoes for total mosquito toxic knockdown at 6 min, 1 hr, and 24 hr post-treatment exposure. Experiments were replicated 12, 18, 32, or 56 times. Thus, 60, 90, 160. or 280 mosquitoes were tested against each treatment depending on the experiment, and the proportion of mosquitoes not biting for each treatment was calculated. For each experiment, conducted in different time periods, logistic regression was used to make two sets of one degree-of-freedom contrasts (t-tests): treatments vs. control and treatments vs. SS220 for anti-biting activity within each experiment. The level of significance was set at P=0.05. In all, we conducted 8 biological experiments, and all experiments used Ae. aegypti as the test mosquito with exception of Experiment 7 which used An. stephensi.
# Experiments 6 and 7: These experiments compared the anti-biting activities of SS-220, and plant-isolated callicarpenal, humulene epoxide II, intermedeol and spathulenol at 25 nmol compound/cm^2 cloth versus control against Ae. aegypti and An. stephensi, respectively. Experiment 6 was replicated 32 times and 7 had 56 replicates
compound,measurement,setting,value
"CC1=CCC[C@@H]2[C@@](C)(CC=O)[C@H](C)CC[C@@]12C [callicarpenal, 13,14,15,16-tetranorclerod-3-en-12-al]",repellency compared with octanoic acid (in words),[1],no significant difference
same,repellency compared with octanoic acid (in words),[2],significantly greater repellency than octanoic acid
same,Proportion Not Biting,[3],0.75^c
same,repellent activity (in words),[3],as effective as SS220
"C=C(C)C1CCC2(C)CCCC(C)(O)C2C1 [intermedeol, (4S,5S,7R,10S)-eudesm-11-en-4-ol]",repellency compared with octanoic acid (in words),[1],significantly greater repellency than octanoic acid
same,repellency compared with octanoic acid (in words),[2],significantly greater repellency than octanoic acid
same,Proportion Not Biting,[3],0.72^c
same,repellent activity (in words),[3],as effective as SS220
